The record followed here is ChEMBL document CHEMBL3997835, “Isoquinoline alkaloids from Coptis japonica stimulate the myoblast differentiation via p38 MAP-kinase and Akt signaling pathway” (Bioorg Med Chem Lett, 2017).

Active and inactive are the calls of the source. No cut-off for these calls is given here.

The subject of data set [1] is C2C12. The experiment in a line: Induction of myoblast differentiation in mouse C2C12 cells expressing MyoD-responsive 4RTK-Luc assessed as increase in MHC protein expression at 10 nM after 2 days by Western blot analysis. It is filed as functional, cell-based. On the technique in general: In western blotting, separated proteins are transferred to a membrane and probed.

Data set [2] deals with C2C12. The experiment in a line: Induction of MyoD transcriptional activity in mouse C2C12 cells expressing MyoD-responsive 4RTK-Luc at 10 nM after 24 hrs by luciferase reporter gene assay. Format: functional, cell-based. For orientation: A reporter such as luciferase makes a cellular process visible.
Data set [3] concerns C2C12. The experiment in a line: Cytotoxicity against mouse C2C12 cells at 10 nM up to 24 hrs. Format: cell-based. To be noted: c2c12, 24 h, 0.01 µM.
Data set [4] relates to C2C12. The experiment in a line: Induction of myoblast differentiation in mouse C2C12 cells assessed as increase in MyoD protein expression after 2 days by Western blot analysis. Format: functional, cell-based.
Data set [5] deals with RAC-alpha serine/threonine-protein kinase (Mus musculus) (UniProt P31750). The data set is described as follows: Induction of Akt phosphorylation in mouse C2C12 cells up to 10 nM after 2 days by Western blot analysis. Format: cell-based.
RAC-alpha serine/threonine-protein kinase (Mus musculus), sequence (P31750 whole entry): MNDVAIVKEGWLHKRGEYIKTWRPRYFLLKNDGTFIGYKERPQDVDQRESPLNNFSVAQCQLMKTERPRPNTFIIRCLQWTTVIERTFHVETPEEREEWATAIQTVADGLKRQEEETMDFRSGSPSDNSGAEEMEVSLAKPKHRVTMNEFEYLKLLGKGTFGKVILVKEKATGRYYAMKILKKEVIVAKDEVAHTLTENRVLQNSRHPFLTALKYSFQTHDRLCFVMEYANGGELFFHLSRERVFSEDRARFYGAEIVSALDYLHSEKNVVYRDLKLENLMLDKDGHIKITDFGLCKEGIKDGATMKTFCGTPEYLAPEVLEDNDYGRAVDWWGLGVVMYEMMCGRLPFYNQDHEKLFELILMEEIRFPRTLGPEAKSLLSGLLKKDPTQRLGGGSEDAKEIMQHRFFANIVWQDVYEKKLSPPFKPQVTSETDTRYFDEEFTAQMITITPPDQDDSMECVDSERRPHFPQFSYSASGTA
Data set [6] deals with C2C12. The experiment in a line: Induction of myoblast differentiation in mouse C2C12 cells assessed as increase in MHC expression after 2 days by DAPI staining based immunofluorescence assay. It is filed as functional, cell-based.
The test system of data set [7] is C2C12. The experiment in a line: Induction of myoblast differentiation in mouse C2C12 cells assessed as cylinder shaped multinucleated myotubes after 2 days by DAPI staining based immunofluorescence assay. It is filed as functional, cell-based.
Data set [8] deals with C2C12. The data set is described as follows: Induction of myoblast differentiation in mouse C2C12 cells assessed as increase in MHC protein expression after 2 days by Western blot analysis. It is filed as functional, cell-based.
The target in data set [9] is MAP kinase p38 (Mus musculus) (UniProt P47811+O08911+Q9WUI1+Q9Z1B7). The data set is described as follows: Induction of p38 MAPK phosphorylation in mouse C2C12 cells at 0.1 nM after 2 days by Western blot analysis relative to control. It is filed as cell-based.

In the case of `COc1cc2c(cc1OC)-c1cc3ccc4c(c3c[n+]1CC2)OCO4`, the result in data set [1] and in data set [2] was Active. The Activity result in data set [3] is recorded as “Non-Toxic”.
With `COc1ccc2cc3[n+](cc2c1OC)CCc1cc2c(cc1-3)OCO2` [BERBERINE], the outcome in data set [1] and in data set [2] was Active. In addition, in [3], the Activity result is on record as “Non-Toxic”.
For `COc1ccc2c(c1O)-c1c(O)c(OC)cc3c1[C@H](C2)[N+](C)(C)CC3` [MAGNOFLORINE], the Activity entry in data set [4] is “Dose-dependent effect”; in [6] it was “Dose-dependent effect”; in data set [7], “Dose-dependent effect”; in data set [3], “Non-Toxic”; in data set [8], “Dose-dependent effect”. Also, the outcome in [1], in [5] and in data set [2] was Active. The compound further registered a fold change (FC) in data set [9] of 6.
Turning to `COc1cc2c(cc1OC)-c1cc3ccc(OC)c(OC)c3c[n+]1CC2` [PALMITINE], the outcome in [1] and in data set [2] was Active. For the same compound, the Activity result in [3] is “Non-Toxic”.
For the compound `COc1cc2c(cc1O)CC[n+]1cc3c(OC)c(OC)ccc3cc1-2` [JATRORRHIZINE], the outcome in data set [1] and in [2] was Active. Also, the Activity entry in data set [3] is recorded as “Non-Toxic”.
With `OC1c2c(ccc3c2OCO3)C=C2c3cc4c(cc3CCN21)OCO4` (centres undefined), the outcome in data set [1] and in [2] was Active. Moreover, the Activity result in [3] is “Non-Toxic”.
